From patent US4517359A, “11-Methyl-11-aza-4-0-cladinosyl-6-0-desosaminyl-15-ethyl-7,1 3,14-trihydroxy-3,5,7,9,12,14-hexamethyl-oxacyclopentadecane-2-one and derivatives thereof” (Sour Pliva farmaceutska, kemijska prehrambena i kozmeticka …, priority 1981, dated 1985)
Converted amounts (≈) assume the structure as drawn. Read-outs that look alike come from different tables or passages of the source.

Key:
bacteria = settings: versus erythromycin A (U.S. Pat. No. 3,417,077; Rocz. Chem. 46, 2212-2217, 1972); cited from earlier work
[1] = tested on: Streptococcus faecalis ATCC 8043; test: Minimum Inhibitory Concentration (MIC), in vitro; format: cell-based; settings: Enterococcus faecalis
[2] = tested on: Staphylococcus epidermidis ATCC 12228; test: Minimum Inhibitory Concentration (MIC), in vitro; format: cell-based
[3] = tested on: Staphylococcus aureus ATCC 6538-P; test: Minimum Inhibitory Concentration (MIC), in vitro; format: cell-based
[4] = tested on: Micrococcus flavus ATCC 10240; test: Minimum Inhibitory Concentration (MIC), in vitro; format: cell-based
Sarcina lutea ATCC 9341 = test: Minimum Inhibitory Concentration (MIC), in vitro; format: cell-based; settings: Micrococcus luteus
[5] = tested on: Bacillus cereus var. mycoides ATCC 11778; test: microbe, parasite or virus in culture; format: cell-based; settings: ATCC11778, read-out: Minimum Inhibitory Concentration (MIC)
[6] = tested on: Bacillus subtilis ATCC 6633; test: Minimum Inhibitory Concentration (MIC), in vitro; format: cell-based
[7] = tested on: series of test microorganisms; test: in vitro test on a series of test microorganisms (MIC), overall; format: cell-based; settings: test strains of Tables 1 and 2; in comparison with starting 11-aza-10-deoxo-10-dihydro erythromycin A
Description: The new compounds were tested in vitro on a series of test microorganisms.

[8] = ATCC8043, Streptococcus faecalis ATCC 8043, in vitro, read-out: Minimum Inhibitory Concentration (MIC)
[9] = ATCC12228, Staphylococcus epidermidis ATCC 12228, in vitro, read-out: Minimum Inhibitory Concentration (MIC)
[10] = ATCC6538, Staphylococcus aureus ATCC 6538-P, in vitro, read-out: Minimum Inhibitory Concentration (MIC)
[11] = ATCC10240, Micrococcus flavus ATCC 10240, in vitro, read-out: Minimum Inhibitory Concentration (MIC)
[12] = ATCC9341, Sarcina lutea ATCC 9341, in vitro, read-out: Minimum Inhibitory Concentration (MIC)
[13] = ATCC6633, Bacillus subtilis ATCC 6633, in vitro, read-out: Minimum Inhibitory Concentration (MIC)

Structure (SMILES) | antibacterial activity compared with the starting antibiotic (bacteria) | MIC [1, 8] | MIC [2, 9] | MIC [3, 10] | MIC [4, 11] | MIC (Sarcina lutea ATCC 9341; [12]) | MIC [5] | MIC [6, 13] | antibacterial activity in words [7] | MIC ([1]; ATCC8043, read-out: Minimum Inhibitory Concentration (MIC)) | MIC ([2]; Staphylococcus epidermidis, ATCC12228, read-out: Minimum Inhibitory Concentration (MIC)) | MIC ([3]; Staphylococcus aureus, ATCC6538, read-out: Minimum Inhibitory Concentration (MIC)) | MIC ([4]; Micrococcus flavus, ATCC10240, read-out: Minimum Inhibitory Concentration (MIC)) | MIC (Sarcina lutea ATCC 9341; ATCC9341, read-out: Minimum Inhibitory Concentration (MIC)) | MIC ([6]; Bacillus subtilis, ATCC6633, read-out: Minimum Inhibitory Concentration (MIC))
CC[C@H]1OC(=O)[C@H](C)[C@@H](O[C@H]2C[C@@](C)(OC)[C@@H](O)[C@H](C)O2)[C@H](C)[C@@H](O[C@@H]2O[C@H](C)C[C@H](N(C)C)[C@H]2O)[C@](C)(O)C[C@@H](C)C(=O)[C@H](C)[C@H]2OC(=O)O[C@@]21C [11,12-cyclic carbonate of erythromycin A] | improved antibacterial activity | – | – | – | – | – | – | – | – | – | – | – | – | – | –
CC[C@H]1OC(=O)[C@H](C)[C@@H](O[C@H]2C[C@@](C)(OC)[C@@H](O)[C@H](C)O2)[C@H](C)[C@@H](O[C@@H]2O[C@H](C)C[C@H](N(C)C)[C@H]2O)[C@](C)(O)C[C@@H](C)CN(C)[C@H](C)[C@@H](O)[C@]1(C)O [Example 1, N-methyl-11-aza-10-deoxo-10-dihydro erythromycin A] | – | 0.01 µg/mL (≈ 0.0134 µM) | 0.5 µg/mL (≈ 0.668 µM) | 0.5 µg/mL (≈ 0.668 µM) | 0.01 µg/mL (≈ 0.0134 µM) | 0.05 µg/mL (≈ 0.0668 µM) | 0.5 µg/mL (≈ 0.668 µM) | 0.1 µg/mL (≈ 0.134 µM) | superior effect on some tested microorganisms | – | – | – | – | – | –
CC[C@H]1OC(=O)[C@H](C)[C@@H](O[C@H]2C[C@@](C)(OC)[C@@H](O)[C@H](C)O2)[C@H](C)[C@@H](O[C@@H]2O[C@H](C)C[C@H](N(C)C)[C@H]2OC(C)=O)[C@](C)(O)C[C@@H](C)CN(C)[C@H](C)[C@@H](O)[C@]1(C)O [Example 2, 2'-acetyl-N-methyl-11-aza-10-deoxo-10-dihydro erythromycin A] | – | – | – | – | – | – | 0.5 µg/mL (≈ 0.632 µM) | – | – | 0.1 µg/mL (≈ 0.126 µM) | 0.5 µg/mL (≈ 0.632 µM) | 0.5 µg/mL (≈ 0.632 µM) | 0.5 µg/mL (≈ 0.632 µM) | 0.1 µg/mL (≈ 0.126 µM) | 0.1 µg/mL (≈ 0.126 µM)
CC[C@H]1OC(=O)[C@H](C)[C@@H](O[C@H]2C[C@@](C)(OC)[C@@H](OC(C)=O)[C@H](C)O2)[C@H](C)[C@@H](O[C@@H]2O[C@H](C)C[C@H](N(C)C)[C@H]2OC(C)=O)[C@](C)(O)C[C@@H](C)CN(C)[C@H](C)[C@@H](O)[C@]1(C)O [Example 3, 2',4"-diacetyl-N-methyl-11-aza-10-deoxo-10-dihydro erythromycin A] | – | 0.5 µg/mL (≈ 0.6 µM) | 2.5 µg/mL (≈ 3 µM) | 0.5 µg/mL (≈ 0.6 µM) | 0.1 µg/mL (≈ 0.12 µM) | 0.1 µg/mL (≈ 0.12 µM) | 0.5 µg/mL (≈ 0.6 µM) | 2.5 µg/mL (≈ 3 µM) | – | – | – | – | – | – | –
CC[C@H]1OC(=O)[C@H](C)[C@@H](O[C@H]2C[C@@](C)(OC)[C@@H](OC(C)=O)[C@H](C)O2)[C@H](C)[C@@H](O[C@@H]2O[C@H](C)C[C@H](N(C)C)[C@H]2OC(C)=O)[C@](C)(O)C[C@@H](C)CN(C)[C@H](C)[C@@H](OC(C)=O)[C@]1(C)O [Example 4, 2',4"-13-triacetyl-N-methyl-11-aza-10-deoxo-10-dihydro erythromycin A] | – | – | – | – | – | – | – | – | did not exhibit any satisfactory activity | – | – | – | – | – | –
CCC(=O)O[C@H]1[C@H](O[C@@H]2[C@@H](C)[C@H](O[C@H]3C[C@@](C)(OC)[C@@H](O)[C@H](C)O3)[C@@H](C)C(=O)O[C@H](CC)[C@@](C)(O)[C@H](O)[C@@H](C)N(C)C[C@H](C)C[C@@]2(C)O)O[C@H](C)C[C@@H]1N(C)C [Example 5, 2'-propionyl-N-methyl-11-aza-10-dihydro erythromycin A] | – | 0.05 µg/mL (≈ 0.0621 µM) | 0.05 µg/mL (≈ 0.0621 µM) | 0.1 µg/mL (≈ 0.124 µM) | 0.05 µg/mL (≈ 0.0621 µM) | 0.05 µg/mL (≈ 0.0621 µM) | 0.5 µg/mL (≈ 0.621 µM) | 0.5 µg/mL (≈ 0.621 µM) | – | – | – | – | – | – | –
CCC(=O)O[C@H]1[C@H](O[C@@H]2[C@@H](C)[C@H](O[C@H]3C[C@@](C)(OC)[C@@H](OC(=O)CC)[C@H](C)O3)[C@@H](C)C(=O)O[C@H](CC)[C@@](C)(O)[C@H](O)[C@@H](C)N(C)C[C@H](C)C[C@@]2(C)O)O[C@H](C)C[C@@H]1N(C)C [Example 6, 2',4"-dipropionyl-N-methyl-11-aza-10-deoxo-10-dihydro erythromycin] | – | 0.1 µg/mL (≈ 0.116 µM) | 0.1 µg/mL (≈ 0.116 µM) | 0.5 µg/mL (≈ 0.581 µM) | 0.5 µg/mL (≈ 0.581 µM) | 0.05 µg/mL (≈ 0.0581 µM) | 0.5 µg/mL (≈ 0.581 µM) | 0.1 µg/mL (≈ 0.116 µM) | – | – | – | – | – | – | –
CC[C@H]1OC(=O)[C@H](C)[C@@H](O[C@H]2C[C@@](C)(OC)[C@@H](O)[C@H](C)O2)[C@H](C)[C@@H](O[C@@H]2O[C@H](C)C[C@H](N(C)C)[C@H]2O)[C@](C)(O)C[C@@H](C)CN(C)[C@H](C)[C@H]2OC(=O)O[C@@]21C [Example 7, N-methyl-11-aza-10-deoxo-10-dihydro erythromycin A 13,14-cyclic carbonate] | – | 0.05 µg/mL (≈ 0.0645 µM) | 0.5 µg/mL (≈ 0.645 µM) | 0.1 µg/mL (≈ 0.129 µM) | 0.1 µg/mL (≈ 0.129 µM) | 0.1 µg/mL (≈ 0.129 µM) | 0.1 µg/mL (≈ 0.129 µM) | 0.1 µg/mL (≈ 0.129 µM) | – | – | – | – | – | – | –
CC[C@H]1OC(=O)[C@H](C)[C@@H](O[C@H]2C[C@@](C)(OC)[C@@H](O)[C@H](C)O2)[C@H](C)[C@@H](O[C@@H]2O[C@H](C)C[C@H](N(C)C)[C@H]2OC(C)=O)[C@](C)(O)C[C@@H](C)CN(C)[C@H](C)[C@H]2OC(=O)O[C@@]21C [Example 8, 2'-acetyl-N-methyl-11-aza-10-deoxo-10-dihydro erythromycin A 13,14-cyclic carbonate] | – | 0.05 µg/mL (≈ 0.0612 µM) | 0.5 µg/mL (≈ 0.612 µM) | 0.1 µg/mL (≈ 0.122 µM) | 0.1 µg/mL (≈ 0.122 µM) | 0.05 µg/mL (≈ 0.0612 µM) | 0.1 µg/mL (≈ 0.122 µM) | 0.1 µg/mL (≈ 0.122 µM) | – | – | – | – | – | – | –
CC[C@H]1OC(=O)[C@H](C)[C@@H](O[C@H]2C[C@@](C)(OC)[C@@H](OC(C)=O)[C@H](C)O2)[C@H](C)[C@@H](O[C@@H]2O[C@H](C)C[C@H](N(C)C)[C@H]2OC(C)=O)[C@](C)(O)C[C@@H](C)CN(C)[C@H](C)[C@H]2OC(=O)O[C@@]21C [Example 9, 2',4"-diacetyl-N-methyl-11-aza-10-deoxo-10-dihydro erythromycin A 13,14-cyclic carbonate] | – | 0.5 µg/mL (≈ 0.582 µM) | 2.5 µg/mL (≈ 2.91 µM) | 2.5 µg/mL (≈ 2.91 µM) | 1 µg/mL (≈ 1.16 µM) | 0.1 µg/mL (≈ 0.116 µM) | 2.5 µg/mL (≈ 2.91 µM) | 2.5 µg/mL (≈ 2.91 µM) | – | – | – | – | – | – | –
CCC(=O)O[C@H]1[C@H](O[C@@H]2[C@@H](C)[C@H](O[C@H]3C[C@@](C)(OC)[C@@H](O)[C@H](C)O3)[C@@H](C)C(=O)O[C@H](CC)[C@@]3(C)OC(=O)O[C@@H]3[C@@H](C)N(C)C[C@H](C)C[C@@]2(C)O)O[C@H](C)C[C@@H]1N(C)C [Example 10, 2'-propionyl-N-methyl-11-aza-10-deoxo-10-dihydro erythromycin A 13,14-cyclic carbonate] | – | 0.1 µg/mL (≈ 0.12 µM) | 0.5 µg/mL (≈ 0.602 µM) | 0.5 µg/mL (≈ 0.602 µM) | 0.5 µg/mL (≈ 0.602 µM) | 0.05 µg/mL (≈ 0.0602 µM) | 0.5 µg/mL (≈ 0.602 µM) | 1 µg/mL (≈ 1.2 µM) | – | – | – | – | – | – | –
CCC(=O)O[C@H]1[C@H](O[C@@H]2[C@@H](C)[C@H](O[C@H]3C[C@@](C)(OC)[C@@H](OC(=O)CC)[C@H](C)O3)[C@@H](C)C(=O)O[C@H](CC)[C@@]3(C)OC(=O)O[C@@H]3[C@@H](C)N(C)C[C@H](C)C[C@@]2(C)O)O[C@H](C)C[C@@H]1N(C)C [Example 11, 2',4"-dipropionyl-N-methyl-11-aza-10-deoxo-10-dihydro erythromycin A 13,14-cyclic carbonate] | – | 0.1 µg/mL (≈ 0.113 µM) | 2.5 µg/mL (≈ 2.82 µM) | 2.5 µg/mL (≈ 2.82 µM) | 0.5 µg/mL (≈ 0.564 µM) | 0.05 µg/mL (≈ 0.0564 µM) | 1 µg/mL (≈ 1.13 µM) | 1 µg/mL (≈ 1.13 µM) | – | – | – | – | – | – | –
CC[C@H]1OC(=O)[C@H](C)[C@@H](O[C@H]2C[C@@](C)(OC)[C@@H](O)[C@H](C)O2)[C@H](C)[C@@H](O[C@@H]2O[C@H](C)C[C@H](N(C)C)[C@H]2O)[C@](C)(O)C[C@@H](C)CN[C@H](C)[C@@H](O)[C@]1(C)O [Standard, 11-aza-10-deoxo-10-dihydro erythromycin A, reference compound] | – | 0.05 µg/mL (≈ 0.068 µM) | 0.5 µg/mL (≈ 0.68 µM) | 0.5 µg/mL (≈ 0.68 µM) | 0.05 µg/mL (≈ 0.068 µM) | 0.05 µg/mL (≈ 0.068 µM) | 0.5 µg/mL (≈ 0.68 µM) | 0.5 µg/mL (≈ 0.68 µM) | – | – | – | – | – | – | –
